In US7994133B2, “Isozyme-specific antagonists of protein kinase C” (The Board of Trustees of the Leland Stanford Junior …, priority 2003, dated 2011):

How the values were obtained:
Format in all cases: cell-based
[1] = tested on: neonatal rat cardiac myocytes; test: Cardiac myocyte contraction rate measurement; settings: for effect on ΨεRACK effect on contraction (negative chronotropy): PMA and ΨεRACK, prior application of the inhibitor; for agonistic effect on contraction rate of cardiac myocytes: prior to PMA; for effect on the decrease in contraction rate induced by PMA: 1 nM or 5 nM PMA about 20 minutes after peptide
Method: Primary cardiac myocyte cell cultures (90-95% pure) were prepared from newborn rats as previously described (Gray, M. O., et al., J. Biol. Chem. 272:30945-30951, (1997); Disatnik, M.-H., et al., Exp. Cell Res. 210:287-297, (1994)). Peptides (100 nM-1 μM applied concentration) were introduced into cells by transient permeabilization (Johnson, J. A., et al., Circ. Res. 79:1086-1099, (1996)) with sham permeabilization as control, or as carrier-peptide conjugates (30 nM-1 μM) (Derossi, D. et al., surpa (1994); Derossi, D. et al., surpa (1996); Théodore, L., et al., surpa (1995)) with a carrier-carrier dimer as a control.
Cells were treated for 10-20 minutes in the absence or presence of peptide followed by an additional incubation with or without 1 nM phorbol 12-myristate 13-acetate (PMA) for 10 or 20 minutes. Alternatively, cells were incubated for 10 minutes with 100 nM PMA (positive control) or in the absence of PMA.
Measurements of cardiac myocyte contraction rate were carried out essentially as previously described (Johnson, J. A., et al., J. Biol. Chem. 271:24962-24966, (1996). In brief, cardiomyocytes cultured on 35 mm plates were placed in a temperature-regulation apparatus at 37° C. (Medical Systems Corp.) and positioned on the stage of an inverted microscope (Carl Zeiss Inc.). The contraction rates of four cells in one microscopic field were determined every 2 minutes for 15 seconds each. The basal contraction rate (˜300 beats/minute) was stable over many hours.
Peptide SEQ ID Nos:3, 55 and 79 were introduced into cardiac myocyte cell cultures prepared from newborn rats by transient permeabilization, with sham permeabilization as control, or as carrier-peptide conjugates with a carrier-carrier dimer as control. The cells were treated for 10-20 minutes in the absence or presence of peptide followed by an additional incubation with or without phorbol 12-myristate 13-acetate (PMA) for 10 or 20 minutes. Alternatively, cells were incubated for 10 minutes with 100 nM PMA (positive control) or in the absence of PMA. The effect of the peptide and/or PMA was determined by measuring the contraction rate of the myocytes, as described in Example 1B.

[2] = tested on: neonatal rat cardiac myocytes; test: Cardiac myocyte contraction rate measurement; settings: 40 minutes after PMA addition, n=4, p<0.05; PMA alone versus with N-ΨεRACK
rat cardiac myocytes = test: Simulated ischemia, cell damage by trypan blue exclusion; settings: for effect on ΨεRACK-induced protection from ischemic damage: in combination with ΨεRACK; for effect on response to ischemia: peptide alone before simulated ischemia
Method: Cardiac myocytes were isolated from adult male rats as previously described (Chen et al., Proc. Natl. Acad. Sci., 96(22):12784 (1999)). Myocytes in incubation buffer were treated with a peptide or combination of peptides, prepared as described in Example 1, for 15 minutes. Myocytes were then pelleted at 1000 rpm for 1 minute in a degassed incubation buffer saturated with nitrogen and incubated at 37° C. for 3 hours to simulate ischemia. Cell damage was assessed after the 3 hours by trypan blue exclusion and percent cell with damage was determined as previously described (Chen et al., Proc. Natl. Acad. Sci., 96(22):12784 (1999)).

| Compound | decrease in contraction rate induced by 10 nM PMA [2] [%] | effect on ΨεRACK-induced protection from ischemic damage (rat cardiac myocytes) | effect on ΨεRACK effect on contraction (negative chronotropy) [1] | effect on response to ischemia (rat cardiac myocytes) | agonistic effect on contraction rate of cardiac myocytes ([1]; peptide alone) | effect on the decrease in contraction rate induced by PMA [1] | further results |
| --- | --- | --- | --- | --- | --- | --- | --- |
| CCCCCCCCCCCCCC(=O)O[C@@H]1[C@@H](C)[C@@]2(O)[C@@H](C=C(CO)C[C@]3(O)C(=O)C(C)=C[C@@H]23)[C@@H]2C(C)(C)[C@]12OC(C)=O [PMA, phorbol 12-myristate 13-acetate, reference compound] | 47±3 | – | – | – | – | – | decrease from the basal contraction rate ([1]; PMA alone): 11±4% |
| COc1ccc2c(c[n+](C)c3c4cc5c(cc4ccc23)OCO5)c1OC [chelerythrine, reference compound] | – | reversed | inhibited | – | – | – | – |
| EAVSLKPT (listed as Homo sapiens) [εV1-2, reference compound] | – | reversed | abolished | – | – | – | – |
| HAAPIGYD (Alternative pseudo-epsilon RACK peptide) [A-ΨεRACK] | – | did not | – | no effect | not induced | – | – |
| HDAPIGYD (listed as Homo sapiens) [ΨεRACK, εPKC agonist peptide, εPKC amino acid residues 85-92] | – | – | – | – | – | reduced the decrease in contraction rate | reduction of ischemia-induced cell damage (rat cardiac myocytes; peptide 15 minutes before 3 hours simulated ischemia): 60%; decrease in contraction rate from the basal rate ([1]; peptide alone, 20 minutes after peptide addition): 9±2%; decrease from the basal contraction rate ([1]; ΨεRACK together with PMA): 44±6% |
| HNAPIGYD (A modification of SEQ ID NO3) [N-ΨεRACK, εPKC antagonist peptide derived from ΨεRACK, D substituted by N] | 24±5 | abolished | – | no effect | no agonistic effect | able to reduce the decrease in contraction rate | decrease in contraction rate ([1]; cells treated with N-ΨεRACK, then ΨεRACK at 15 minutes and 1 nM PMA at 30 minutes): < 10% |
